# “Also recorded” adds a separate entry of the source.
# Key:
# [1] = tested on: AGS tumor cell line; experiment: Cell surface exposure of ICD markers CRT, HSP70, HSP90 on early apoptotic AGS cells (flow cytometry); format: cell-based, human; conditions: doxorubicin 1.2 μM, cisplatin 100 μM 48 h vs Kadcyla 7 μg/ml 72 h
# Protocol: The cells are collected and washed twice with PBS. The cells are then incubated for 30 min with primary antibody diluted in cold blocking buffer (2% fetal bovine serum in PBS), followed by washing and incubation with an […] monoclonal secondary antibody in blocking solution. Each sample was then analyzed using a FACScan Aria (BD Bioscience). Cell surface expression of HSP70, HSP90 and CRT is analyzed on non-permeabilized annexin V-positive/DAPI-negative cells.
# The expression of ICD markers Hsp70, Hsp90 and CRT as well as NK cells ligands was measured by flow cytometry on these early apoptotic (AnnexinV^+/DAPI^−) cell populations using anti-calreticulin antibody (Abcam, USA), anti-HSP70 (R&D Systems, USA), anti-HSP90 (Enzo Life Sciences, USA). APC AffiniPure F(ab′)2 Fragment Goat Anti-Mouse (Jackson ImmunoResearch) was used as a secondary antibody.
# [2] = tested on: AGS tumor cell line; experiment: In vitro killing of AGS tumor cells, AnnexinV/DAPI flow cytometry; format: cell-based, human; conditions: doxorubicin 1.2 μM or cisplatin 100 μM 48 h; Kadcyla 7 μg/ml 72 h
# [3] = tested on: CD3-CD56+ cells (NK cells) of human PBMCs; experiment: In vitro activation of NK cells: RLI-15 treated PBMCs co-incubated with treated AGS tumor cells; format: cell-based
# Protocol: As controls non-treated tumor cells were incubated with non-treated PBMC (KadNT in the ADC group) and non-treated tumor cells were incubated with RLI-15 treated PBMC (KadNT in the RLI+ADC group).
# [4] = tested on: huHER2/EMT-6 tumors; experiment: Orthotopic huHER2/EMT-6 breast cancer model in vivo; set-up: species or system Balb/c AnN mice; conditions: RLI-15 1 mg/kg s.c. days 15-18, Kadcyla 15 mg/kg i.v. days 0 and 7
# Protocol: The study was initiated when the initial mean tumor volume among individual groups reached 140 mm^3. […] RLI-15 was administered in 4 sequential doses on study days 15-18 to amplify the numbers and activate immune cells. The antitumor efficacy was evaluated on the level of absolute tumor volume change. Safety has been monitored by body weight loss in individual animals. HER2 expression in individual tumors was analyzed using HercepTest™ (Dako) at the endpoint to map for potential heterogeneity of the model (staining was performed according to the instructions given by the manufacturer).
# [5] = in vivo; cited from earlier work
compound,measurement,setting,value
N.N.[Cl][Pt][Cl] [cisplatin],mean fluorescent intensity (MFI) of ICD markers compared with Kadcyla,[1],stronger induction
same,induction of early apoptosis compared with Kadcyla,[2],equally
COc1cccc2c1C(=O)c1c(O)c3c(c(O)c1C2=O)C[C@@](O)(C(=O)CO)C[C@@H]3O[C@H]1C[C@H](N)[C@H](O)[C@H](C)O1 [doxorubicin],mean fluorescent intensity (MFI) of ICD markers compared with Kadcyla,[1],about equal
same,induction of early apoptosis compared with Kadcyla,[2],even better suitable to induce early apoptosis
RLI-15: receptor-linker-interleukin fusion protein of the human IL-15Rα sushi+ fragment with the human IL-15 (SEQ ID NO: 9),proliferation of CD3-CD56+ NK cells,"[3]; PBMCs +/- 2.5 ng/ml RLI-15 72 h, AGS cells +/- Kadcyla 72 h, 10:1, 4 h",increase of total number of CD3−CD56^+ cells; also recorded: strong proliferation; also recorded: increase of total number of CD3^−CD56^+ cells
same,% of IFNγ+ NK cells,"[3]; PBMCs +/- 2.5 ng/ml RLI-15 72 h, AGS cells treated with Kadcyla 5-10 μg/ml 72 h, 10:1, 4 h",only moderate
same,"% of CD107a+ cells, KadNT group",[3]; RLI-15 treated PBMC with non-treated tumor cells,< 40%
same,tumor volume at the end of the study,[4],intermediate tumor volume increase
same,complete tumor eradication / complete and durable responses,[4]; groups of 8 mice,2 out of 8
Todelvy,half-life,[5],16 h
